Laboratory results reported in ChEMBL document CHEMBL1201862, “PubChem BioAssay data set” (2004).
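Interpolation was linear, between the two tested concentrations surrounding the appropriate level; five concentrations were tested over 48 hours in 96-well plates. GI50 = concentration required for 50% inhibition of growth.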 Activity calls are given as the source filed them. No stated cut-off is given here; in the data, active = GI50 up to about 1.1 µM and inactive = higher.

Tests used:
Assay in all cases: NCI-60 cell line screen, 48 h
SNB-75 = tested on: SNB-75
MDA-MB-435 = tested on: MDA-MB-435
NCI-H522 = tested on: NCI-H522
M14 = tested on: M14
MCF7 = tested on: MCF7
U-251 = tested on: U-251
Hs-578T = tested on: Hs-578T
MOLT-4 = tested on: MOLT-4
786-0 = tested on: 786-0
SF-295 = tested on: SF-295
KM12 = tested on: KM12
Malme-3M = tested on: Malme-3M
DU-145 = tested on: DU-145
HCT-116 = tested on: HCT-116
A549 = tested on: A549
RPMI-8226 = tested on: RPMI-8226
T47D = tested on: T47D
CAKI-1 = tested on: CAKI-1
HL-60 = tested on: HL-60
SR = tested on: SR
NCI-H226 = tested on: NCI-H226
NCI-H460 = tested on: NCI-H460
SF-268 = tested on: SF-268
RXF 393 = tested on: RXF 393
SW-620 = tested on: SW-620
UACC-257 = tested on: UACC-257
HT-29 = tested on: HT-29
OVCAR-4 = tested on: OVCAR-4
BT-549 = tested on: BT-549
SK-MEL-5 = tested on: SK-MEL-5
UO-31 = tested on: UO-31
PC-3 = tested on: PC-3
HCC 2998 = tested on: HCC 2998
A498 = tested on: A498
ACHN = tested on: ACHN
UACC-62 = tested on: UACC-62
LOX IMVI = tested on: LOX IMVI
OVCAR-8 = tested on: OVCAR-8
NCI-H23 = tested on: NCI-H23
COLO 205 = tested on: COLO 205
CCRF-CEM = tested on: CCRF-CEM
HOP-62 = tested on: HOP-62
K562 = tested on: K562
HOP-92 = tested on: HOP-92
OVCAR-3 = tested on: OVCAR-3
MDA-N = tested on: MDA-N
SN12C = tested on: SN12C
SF-539 = tested on: SF-539
MDA-MB-231 = tested on: MDA-MB-231
HCT-15 = tested on: HCT-15
SNB-19 = tested on: SNB-19
SK-MEL-28 = tested on: SK-MEL-28
IGROV-1 = tested on: IGROV-1
NCI/ADR-RES = tested on: NCI/ADR-RES
EKVX = tested on: EKVX
SK-OV-3 = tested on: SK-OV-3
TK-10 = tested on: TK-10
SK-MEL-2 = tested on: SK-MEL-2
OVCAR-5 = tested on: OVCAR-5

SMILES: Cc1nc(C)c(N2CCNCC2)c(O)n1
- GI50 (SNB-75): > 100 µM (inactive)
- GI50 (MDA-MB-435): > 100 µM (inactive)
- GI50 (NCI-H522): > 100 µM (inactive)
- GI50 (M14): > 100 µM (inactive)
- GI50 (MCF7): > 100 µM (inactive)
- GI50 (U-251): > 100 µM (inactive)
- GI50 (Hs-578T): > 100 µM (inactive)
- GI50 (MOLT-4): > 100 µM (inactive)
- GI50 (786-0): > 100 µM (inactive)
- GI50 (SF-295): > 100 µM (inactive)
- GI50 (KM12): > 100 µM (inactive)
- GI50 (Malme-3M): > 100 µM (inactive)
- GI50 (DU-145): > 100 µM (inactive)
- GI50 (HCT-116): > 100 µM (inactive)
- GI50 (A549): > 100 µM (inactive)
- GI50 (RPMI-8226): > 100 µM (inactive)
- GI50 (T47D): > 100 µM (inactive)
- GI50 (CAKI-1): > 100 µM (inactive)
- GI50 (HL-60): > 100 µM (inactive)
- GI50 (SR): > 100 µM (inactive)
- GI50 (NCI-H226): > 100 µM (inactive)
- GI50 (NCI-H460): > 100 µM (inactive)
- GI50 (SF-268): > 100 µM (inactive)
- GI50 (RXF 393): > 100 µM (inactive)
- GI50 (SW-620): > 100 µM (inactive)
- GI50 (UACC-257): > 100 µM (inactive)
- GI50 (HT-29): > 100 µM (inactive)
- GI50 (OVCAR-4): > 100 µM (inactive)
- GI50 (BT-549): > 100 µM (inactive)
- GI50 (SK-MEL-5): > 100 µM (inactive)
- GI50 (UO-31): > 100 µM (inactive)
- GI50 (PC-3): > 100 µM (inactive)
- GI50 (HCC 2998): > 100 µM (inactive)
- GI50 (A498): > 100 µM (inactive)
- GI50 (ACHN): > 100 µM (inactive)
- GI50 (UACC-62): > 100 µM (inactive)
- GI50 (LOX IMVI): > 100 µM (inactive)
- GI50 (OVCAR-8): > 100 µM (inactive)
- GI50 (NCI-H23): > 100 µM (inactive)
- GI50 (COLO 205): > 100 µM (inactive)
- GI50 (CCRF-CEM): > 100 µM (inactive)
- GI50 (HOP-62): > 100 µM (inactive)
- GI50 (K562): > 100 µM (inactive)
- GI50 (HOP-92): > 100 µM (inactive)
- GI50 (OVCAR-3): > 100 µM (inactive)
- GI50 (MDA-N): > 100 µM (inactive)
- GI50 (SN12C): > 100 µM (inactive)
- GI50 (SF-539): > 100 µM (inactive)
- GI50 (MDA-MB-231): > 100 µM (inactive)
- GI50 (HCT-15): > 100 µM
- GI50 (SNB-19): > 100 µM (inactive)
- GI50 (SK-MEL-28): > 100 µM (inactive)
- GI50 (IGROV-1): > 100 µM (inactive)
- GI50 (NCI/ADR-RES): > 100 µM (inactive)
- GI50 (EKVX): > 100 µM (inactive)
- GI50 (SK-OV-3): > 100 µM (inactive)
- GI50 (TK-10): > 100 µM (inactive)

SMILES: O=C1CSC2(CC(/C=C/c3ccccc3)=NN2c2cccc(S(=O)(=O)O)c2)N1c1nc2ccccc2s1 (stereo unspecified)
- GI50 (SNB-75): 26.7 µM (inactive)
- GI50 (MDA-MB-435): 19.5 µM (inactive)
- GI50 (NCI-H522): 19.5 µM (inactive)
- GI50 (M14): 41.3 µM (inactive)
- GI50 (MCF7): 17.1 µM (inactive)
- GI50 (U-251): 20.6 µM (inactive)
- GI50 (Hs-578T): 55.5 µM (inactive)
- GI50 (MOLT-4): 24.9 µM (inactive)
- GI50 (SK-MEL-2): 22.6 µM (inactive)
- GI50 (786-0): 18.3 µM (inactive)
- GI50 (KM12): 19.4 µM (inactive)
- GI50 (Malme-3M): 69.7 µM (inactive)
- GI50 (DU-145): 25.4 µM (inactive)
- GI50 (HCT-116): 36.8 µM (inactive)
- GI50 (A549): 32.8 µM (inactive)
- GI50 (RPMI-8226): 24.6 µM (inactive)
- GI50 (T47D): 17.1 µM (inactive)
- GI50 (CAKI-1): 38.5 µM (inactive)
- GI50 (HL-60): 27 µM (inactive)
- GI50 (SR): 21.8 µM (inactive)
- GI50 (NCI-H226): 37.5 µM (inactive)
- GI50 (NCI-H460): 26.3 µM (inactive)
- GI50 (RXF 393): 22.1 µM (inactive)
- GI50 (SW-620): 29.6 µM (inactive)
- GI50 (UACC-257): 60 µM (inactive)
- GI50 (HT-29): 38.3 µM (inactive)
- GI50 (OVCAR-4): 20.9 µM (inactive)
- GI50 (BT-549): 24.8 µM (inactive)
- GI50 (SK-MEL-5): 44.6 µM (inactive)
- GI50 (UO-31): 18.5 µM (inactive)
- GI50 (PC-3): 25.6 µM (inactive)
- GI50 (HCC 2998): 59.4 µM (inactive)
- GI50 (A498): 26 µM (inactive)
- GI50 (OVCAR-5): 27.8 µM (inactive)
- GI50 (ACHN): 27 µM (inactive)
- GI50 (UACC-62): 18.9 µM (inactive)
- GI50 (LOX IMVI): 9.59 µM (inactive)
- GI50 (OVCAR-8): 17.9 µM (inactive)
- GI50 (NCI-H23): 22 µM (inactive)
- GI50 (COLO 205): > 100 µM (inactive)
- GI50 (CCRF-CEM): 19.1 µM (inactive)
- GI50 (K562): 35.1 µM (inactive)
- GI50 (HOP-92): 21.7 µM (inactive)
- GI50 (MDA-N): 35.2 µM (inactive)
- GI50 (SN12C): 28.7 µM (inactive)
- GI50 (SF-539): 39.7 µM (inactive)
- GI50 (MDA-MB-231): 24.5 µM (inactive)
- GI50 (HCT-15): 32.6 µM
- GI50 (SNB-19): 21.5 µM (inactive)
- GI50 (SK-MEL-28): 62.4 µM (inactive)
- GI50 (IGROV-1): 16.1 µM (inactive)
- GI50 (NCI/ADR-RES): 34.1 µM (inactive)
- GI50 (EKVX): 60.4 µM (inactive)
- GI50 (TK-10): 19.5 µM (inactive)
